In PubChem BioAssay (NCI):
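GI50 is the concentration that inhibits growth by half. TGI: total growth inhibition.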

Experiments:
Test in all cases: DTP human tumour cell line panel, 384-well format
SK-MEL-2 melanoma = tested on: SK-MEL-2 melanoma
NCI-H23 lung = tested on: NCI-H23 lung
CAKI-1 renal = tested on: CAKI-1 renal
SF-295 CNS = tested on: SF-295 CNS
NCI-H522 lung = tested on: NCI-H522 lung
OVCAR-3 ovarian = tested on: OVCAR-3 ovarian
HL-60(TB) leukemia = tested on: HL-60(TB) leukemia
ACHN renal = tested on: ACHN renal
MDA-MB-468 breast = tested on: MDA-MB-468 breast
MOLT-4 leukemia = tested on: MOLT-4 leukemia
SK-MEL-28 melanoma = tested on: SK-MEL-28 melanoma
TK-10 renal = tested on: TK-10 renal
UO-31 renal = tested on: UO-31 renal
IGROV1 ovarian = tested on: IGROV1 ovarian
SR leukemia = tested on: SR leukemia
M14 melanoma = tested on: M14 melanoma
SF-539 CNS = tested on: SF-539 CNS
SK-MEL-5 melanoma = tested on: SK-MEL-5 melanoma
OVCAR-5 ovarian = tested on: OVCAR-5 ovarian
NCI-H226 lung = tested on: NCI-H226 lung
HS 578T breast = tested on: HS 578T breast
OVCAR-4 ovarian = tested on: OVCAR-4 ovarian
DU-145 prostate = tested on: DU-145 prostate
SNB-75 CNS = tested on: SNB-75 CNS
SF-268 CNS = tested on: SF-268 CNS
NCI-H460 NSCLC = tested on: NCI-H460 NSCLC
NCI-H322M lung = tested on: NCI-H322M lung
MDA-MB-435 melanoma = tested on: MDA-MB-435 melanoma
A549 NSCLC = tested on: A549 NSCLC
UACC-62 melanoma = tested on: UACC-62 melanoma
HT29 colon = tested on: HT29 colon
786-0 renal = tested on: 786-0 renal
SW-620 colon = tested on: SW-620 colon
K-562 leukemia = tested on: K-562 leukemia
EKVX NSCLC = tested on: EKVX NSCLC
MDA-MB-231 breast = tested on: MDA-MB-231 breast
SK-OV-3 ovarian = tested on: SK-OV-3 ovarian
OVCAR-8 ovarian = tested on: OVCAR-8 ovarian
RXF 393 renal = tested on: RXF 393 renal
HCT-15 colon = tested on: HCT-15 colon
SN12C renal = tested on: SN12C renal
PC-3 prostate = tested on: PC-3 prostate
MALME-3M melanoma = tested on: MALME-3M melanoma
UACC-257 melanoma = tested on: UACC-257 melanoma
HOP-62 NSCLC = tested on: HOP-62 NSCLC
MCF7 breast = tested on: MCF7 breast
HCT-116 colon = tested on: HCT-116 colon
HOP-92 NSCLC = tested on: HOP-92 NSCLC
U251 glioblastoma = tested on: U251 glioblastoma
A498 renal = tested on: A498 renal
KM12 colon = tested on: KM12 colon
COLO 205 colon = tested on: COLO 205 colon
T-47D breast = tested on: T-47D breast
BT-549 breast = tested on: BT-549 breast
SNB-19 CNS = tested on: SNB-19 CNS

CCc1c2c(nc3ccc(OC(=O)N4CCC(N5CCCCC5)CC4)cc13)-c1cc3c(c(=O)n1C2)COC(=O)[C@]3(O)CC
GI50 (SK-MEL-2 melanoma): 16.2 µM
TGI (SK-MEL-2 melanoma): 40.3 µM
GI50 (NCI-H23 lung): 2710 nM
TGI (NCI-H23 lung): 9.66 µM
GI50 (CAKI-1 renal): 3.08 µM
TGI (CAKI-1 renal): > 100 µM
GI50 (SF-295 CNS): 1890 nM
TGI (SF-295 CNS): 4.34 µM
GI50 (NCI-H522 lung): 1850 nM
TGI (NCI-H522 lung): 16.7 µM
GI50 (OVCAR-3 ovarian): 1450 nM
TGI (OVCAR-3 ovarian): 14.2 µM
GI50 (HL-60(TB) leukemia): 1620 nM
TGI (HL-60(TB) leukemia): 3000 nM
GI50 (ACHN renal): 2110 nM
TGI (ACHN renal): 5.05 µM
GI50 (MDA-MB-468 breast): 731 nM
TGI (MDA-MB-468 breast): 3.01 µM
GI50 (MOLT-4 leukemia): 153 nM
TGI (MOLT-4 leukemia): 301 nM
GI50 (SK-MEL-28 melanoma): 7.12 µM
TGI (SK-MEL-28 melanoma): 36.8 µM
GI50 (TK-10 renal): 9.46 µM
TGI (TK-10 renal): 38.7 µM
GI50 (UO-31 renal): 8.09 µM
TGI (UO-31 renal): 41.2 µM
GI50 (IGROV1 ovarian): 10.3 µM
TGI (IGROV1 ovarian): 29.1 µM
GI50 (SR leukemia): 150 nM
TGI (SR leukemia): 299 nM
GI50 (M14 melanoma): 4.12 µM
TGI (M14 melanoma): 26 µM
GI50 (SF-539 CNS): 2080 nM
TGI (SF-539 CNS): 5.14 µM
GI50 (SK-MEL-5 melanoma): 2280 nM
TGI (SK-MEL-5 melanoma): 10.8 µM
GI50 (OVCAR-5 ovarian): 14.9 µM
TGI (OVCAR-5 ovarian): 34.7 µM
GI50 (NCI-H226 lung): 3.43 µM
TGI (NCI-H226 lung): 18.8 µM
GI50 (HS 578T breast): 1690 nM
TGI (HS 578T breast): 17.4 µM
GI50 (OVCAR-4 ovarian): 21.5 µM
TGI (OVCAR-4 ovarian): 59.8 µM
GI50 (DU-145 prostate): 2560 nM
TGI (DU-145 prostate): 9.11 µM
GI50 (SNB-75 CNS): 2300 nM
TGI (SNB-75 CNS): 8.61 µM
GI50 (SF-268 CNS): 1070 nM
TGI (SF-268 CNS): 10.2 µM
GI50 (NCI-H460 NSCLC): 4.26 µM
TGI (NCI-H460 NSCLC): 24.5 µM
GI50 (NCI-H322M lung): 16 µM
TGI (NCI-H322M lung): 42.3 µM
GI50 (MDA-MB-435 melanoma): 10.9 µM
TGI (MDA-MB-435 melanoma): 25.7 µM
GI50 (A549 NSCLC): 8.58 µM
TGI (A549 NSCLC): 94.1 µM
GI50 (UACC-62 melanoma): 1210 nM
TGI (UACC-62 melanoma): 7.79 µM
GI50 (HT29 colon): 6.08 µM
TGI (HT29 colon): 19.7 µM
GI50 ([…]-0 renal): 3.02 µM
TGI (786-0 renal): 10.4 µM
GI50 (SW-620 colon): 851 nM
TGI (SW-620 colon): 18.1 µM
GI50 (K-562 leukemia): 3.12 µM
TGI (K-562 leukemia): 20.8 µM
GI50 (EKVX NSCLC): 13.5 µM
TGI (EKVX NSCLC): 45 µM
GI50 (MDA-MB-231 breast): 16.9 µM
TGI (MDA-MB-231 breast): > 100 µM
GI50 (SK-OV-3 ovarian): 2910 nM
TGI (SK-OV-3 ovarian): 16.4 µM
GI50 (OVCAR-8 ovarian): 4.03 µM
TGI (OVCAR-8 ovarian): 54.7 µM
GI50 (RXF 393 renal): 767 nM
TGI (RXF 393 renal): 5.45 µM
GI50 (HCT-15 colon): 5.87 µM
TGI (HCT-15 colon): 24.1 µM
GI50 (SN12C renal): 2580 nM
TGI (SN12C renal): 7.58 µM
GI50 (PC-3 prostate): 12.1 µM
TGI (PC-3 prostate): 66.5 µM
GI50 (MALME-3M melanoma): 10.7 µM
TGI (MALME-3M melanoma): 36.2 µM
GI50 (UACC-257 melanoma): 7.82 µM
TGI (UACC-257 melanoma): 29.3 µM
GI50 (HOP-62 NSCLC): 1570 nM
TGI (HOP-62 NSCLC): 4.42 µM
GI50 (MCF7 breast): 1300 nM
TGI (MCF7 breast): 14.8 µM
GI50 (HCT-116 colon): 1840 nM
TGI (HCT-116 colon): 15.5 µM
GI50 (HOP-92 NSCLC): 6.81 µM
TGI (HOP-92 NSCLC): 43.9 µM
GI50 (U251 glioblastoma): 2110 nM
TGI (U251 glioblastoma): 11.8 µM
GI50 (A498 renal): 5.29 µM
TGI (A498 renal): 19.9 µM
GI50 (KM12 colon): 2040 nM
TGI (KM12 colon): 10.7 µM
GI50 (COLO 205 colon): 2700 nM
TGI (COLO 205 colon): 21 µM
GI50 (T-47D breast): 3.53 µM
TGI (T-47D breast): 41 µM
GI50 (BT-549 breast): 2510 nM
TGI (BT-549 breast): 13.4 µM
GI50 (SNB-19 CNS): 4.15 µM
TGI (SNB-19 CNS): > 100 µM
